The supplement of paper PMC10307832

Assays:
Assay in all cases: relative viability (nuclei count vs DMSO), 5 days (fraction); higher = more cells survive
Conditions in all cases: main component drawn
[1] = compound: CC1=C(N=C(N=C1N)[C@H](CC(=O)N)NC[C@@H](C(=O)N)N)C(=O)N[C@@H]([C@H](C2=CN=CN2)OC3C(C(C(C(O3)CO)O)O)OC4C(C(C(C(O4)CO)O)OC(=O)N)O)C(=O)N[C@H](C)[C@H]([C@H](C)C(=O)N[C@@H]([C@@H](C)O)C(=O)NCCC5=NC(=CS5)C6=NC(=CS6)C(=O)NCCC[S+](C)C)O [Bleomycin] + CC(=O)c1c(C)c2cnc(Nc3ccc(N4CCNCC4)cn3)nc2n(C2CCCC2)c1=O [Palbociclib] (partner 0.5 µM)
Method in brief: (§1)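 The day after seeding in 1536-well plates, lung cancer cell lines were treated by pin tool with a single drug, or with a fixed anchor-drug dose together with five library-drug doses (not always all listed) in √10 steps. After 5 days, a combined fix-and-stain solution (final 0.05% Triton X-100, 1% formaldehyde, 1 ug/ml Hoechst) was added. Nuclei counted on 4× images gave relative viability as treated counts over vehicle counts, reported as the median of duplicate plates.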

[2] = compound: CC1=C(N=C(N=C1N)[C@H](CC(=O)N)NC[C@@H](C(=O)N)N)C(=O)N[C@@H]([C@H](C2=CN=CN2)OC3C(C(C(C(O3)CO)O)O)OC4C(C(C(C(O4)CO)O)OC(=O)N)O)C(=O)N[C@H](C)[C@H]([C@H](C)C(=O)N[C@@H]([C@@H](C)O)C(=O)NCCC5=NC(=CS5)C6=NC(=CS6)C(=O)NCCC[S+](C)C)O [Bleomycin] + CC1(C)CCC(c2ccc(Cl)cc2)=C(CN2CCN(c3ccc(C(=O)NS(=O)(=O)c4ccc(N[C@H](CCN5CCOCC5)CSc5ccccc5)c(S(=O)(=O)C(F)(F)F)c4)cc3)CC2)C1 [Navitoclax] (partner 0.5 µM)
Method in brief: as §1

[3] = compound: CC1=C(N=C(N=C1N)[C@H](CC(=O)N)NC[C@@H](C(=O)N)N)C(=O)N[C@@H]([C@H](C2=CN=CN2)OC3C(C(C(C(O3)CO)O)O)OC4C(C(C(C(O4)CO)O)OC(=O)N)O)C(=O)N[C@H](C)[C@H]([C@H](C)C(=O)N[C@@H]([C@@H](C)O)C(=O)NCCC5=NC(=CS5)C6=NC(=CS6)C(=O)NCCC[S+](C)C)O [Bleomycin] + CC(=O)Nc1cccc(-n2c(=O)n(C3CC3)c(=O)c3c(Nc4ccc(I)cc4F)n(C)c(=O)c(C)c32)c1 [Trametinib] (partner 0.02 µM)
Method in brief: as §1

[4] = compound: CC1=C(N=C(N=C1N)[C@H](CC(=O)N)NC[C@@H](C(=O)N)N)C(=O)N[C@@H]([C@H](C2=CN=CN2)OC3C(C(C(C(O3)CO)O)O)OC4C(C(C(C(O4)CO)O)OC(=O)N)O)C(=O)N[C@H](C)[C@H]([C@H](C)C(=O)N[C@@H]([C@@H](C)O)C(=O)NCCC5=NC(=CS5)C6=NC(=CS6)C(=O)NCCC[S+](C)C)O [Bleomycin] + C[C@]1(O)C[C@@H](c2nc(-c3ccc4ccc(-c5ccccc5)nc4c3)c3c(N)nccn32)C1 [Linsitinib] (partner 1 µM)
Method in brief: as §1

Cell Line | relative viability ([1]; first compound 0.01 µM) | relative viability ([1]; first compound 0.03162 µM) | relative viability ([1]; first compound 0.1 µM) | relative viability ([1]; first compound 0.3162 µM) | relative viability ([1]; first compound 1 µM) | relative viability ([2]; first compound 0.01 µM) | relative viability ([2]; first compound 0.03162 µM) | relative viability ([2]; first compound 0.1 µM) | relative viability ([2]; first compound 0.3162 µM) | relative viability ([2]; first compound 1 µM) | relative viability ([3]; first compound 0.01 µM) | relative viability ([3]; first compound 0.03162 µM) | relative viability ([3]; first compound 0.1 µM) | relative viability ([3]; first compound 0.3162 µM) | relative viability ([3]; first compound 1 µM) | relative viability ([4]; first compound 0.01 µM) | relative viability ([4]; first compound 0.03162 µM) | relative viability ([4]; first compound 0.1 µM) | relative viability ([4]; first compound 0.3162 µM) | relative viability ([4]; first compound 1 µM)
NCI-H2085 | 0.443 | 0.455 | 0.432 | 0.324 | 0.355 | 0.994 | 1.02 | 0.849 | 0.508 | 0.465 | 0.549 | 0.514 | 0.384 | 0.243 | 0.226 | 0.678 | 0.823 | 0.632 | 0.346 | 0.363
COR-L23 | 0.184 | 0.237 | 0.151 | 0.115 | 0.0887 | 0.811 | 0.723 | 0.332 | 0.0914 | 0.104 | 0.432 | 0.518 | 0.303 | 0.133 | 0.129 | 0.696 | 0.559 | 0.307 | 0.106 | 0.102
BEN | 0.482 | 0.473 | 0.452 | 0.444 | 0.408 | 0.0606 | 0.0742 | 0.0676 | 0.0599 | 0.0555 | 1.03 | 0.959 | 1.05 | 0.863 | 0.849 | 0.862 | 0.868 | 0.896 | 0.637 | 0.682
LK-2 | 0.45 | 0.299 | 0.418 | 0.15 | 0.134 | 0.478 | 0.537 | 0.415 | 0.214 | 0.239 | 0.474 | 0.389 | 0.449 | 0.263 | 0.254 | 0.418 | 0.373 | 0.318 | 0.198 | 0.255
NCI-H441 | 0.182 | 0.203 | 0.185 | 0.153 | 0.17 | – | 0.733 | 0.574 | 0.389 | 0.339 | 0.398 | 0.408 | 0.431 | 0.298 | 0.357 | – | 0.57 | 0.564 | 0.209 | 0.255
NCI-H1666 | 0.599 | 0.655 | 0.594 | 0.578 | 0.572 | 0.761 | 0.579 | 0.518 | 0.362 | 0.324 | 0.717 | 0.783 | 0.76 | 0.533 | 0.581 | 0.677 | 0.543 | 0.486 | 0.335 | 0.269
NCI-H1993 | 0.579 | 0.525 | 0.535 | 0.451 | 0.329 | 0.887 | 0.765 | 0.863 | 0.663 | 0.584 | 0.493 | 0.476 | 0.459 | 0.391 | 0.346 | 0.736 | 0.745 | 0.693 | 0.59 | 0.518
NCI-H1975 | 0.377 | 0.398 | 0.397 | 0.226 | 0.178 | 0.872 | 0.878 | 0.584 | 0.28 | 0.222 | 0.326 | 0.284 | 0.327 | 0.226 | 0.152 | 0.896 | 0.823 | 0.806 | 0.315 | 0.221
HCC-44 | 0.861 | 0.821 | 0.64 | 0.455 | 0.382 | 0.674 | 0.323 | 0.278 | 0.161 | 0.191 | 0.914 | 0.924 | 0.827 | 0.369 | 0.388 | 0.462 | 0.283 | 0.26 | 0.176 | 0.178
